According to US10947323B2, “Capped cyclodextrin-hydrophobic moiety conjugate, cyclodextrin supramolecular polymer, and cyclodextrin-siRNA complex and method of synthesis thereof” (SORBONNE UNIVERSITE, priority 2016, dated 2021):

What was measured:
[1] = tested on: siRNA; assay: Agarose gel electrophoresis of siRNA complex formation at increasing N/P ratios; format: binding; conditions: at low N/P ratios; 100 V, 40 min
Procedure: In order to characterize the formation of complexes between the siRNA and the compound 11 of the invention obtained in example 1, an electrophorese technique on agarose gel has been used.
The molecule of siRNA and of compound of example 1 have been migrated according to N/P previously chosen.
A solution of 17 μL of siRNA-compound of example 1 is prepared in sterile water and incubated during 20 minutes at ambient temperature.
Then, this solution is deposited on the gel with 3 μL of bromophenol blue before launching the migration: 100 V, 40 min.
Third, thanks to the experiment with agarose electrophoresis gel, it has been shown that capped cyclodextrine-adamantane conjugate are able to interact and to complex siRNA. Indeed, capped cyclodextrine-adamantane complex formation was evaluated at increasing N/P ratios using agarose gel electrophoresis. (FIG. 3)
N/P ratio corresponds to the amount of protonated aminated residue of the cationic species divided by the amount of phosphate residues coming from the nucleic acids.^14 This ratio enables to compare the efficiency of a cationic compound to be complexed with nucleic acids. ^14 Pharmaceutics. 2011, 3, 125-140

[2] = tested on: firefly luciferase GL3 expression in HEK293 cells; assay: KnockDown test of the luciferase GL3 gene (siRNA transfection, One-Glo luminescence); format: cell-based, human; conditions: siRNA complexes, N/P ratio of 1190, 24 hours, untransfected cells = 100% expression
Procedure: The cell line to be transfected is a cell line of human embryonic kidney 293 cells (HEK293). This cell line is cultivated with a DMEM medium to which SVF (10%) is added.
The cultures are made in an incubator at 37° C., 5% of CO2. The cell line HEK293 express constitutively the firefly luciferase GL3.
The HEK293 cells are deposited in a 96 wells plaque 1·10^3 cell/wells.
The siRNA which is used is the luciferase GL3 siRNA.
Transfection of cell line HEK293 with the siRNA directed against the firefly luciferase GL3 with as vector of transfection the […] obtained in example 1 or Lipofectamine 2000 (used as a positive reference of transfection) has been carried out.
The efficacy of transfection on the cells has been evaluated by a method of luminescence.
One day before the transfection, the HEK293 cells are deposited in a 96 wells plaque: 1·10^3 cell/wells treated in 200 μL of DMEM, SVF 10%, without antibiotics, in order that the cells reach a 30-50% of confluence the day after.
The day of the transfection, the 200 μL/wells of medium are withdrawn. […]
This latter is incubated at 37° C. during 24 hours until the analysis by luminescence of the KD of the gene of the luciferase (Kit One-Glo luciferase assay (Promega)).
For this aim, 100 μL/wells of reactants are added to the cells before the plaque be analyzed by luminescence.

[3] = tested on: HEK293 cells; assay: Toxicity test (cell viability, ATP activity, CellTiter Glo 2.0); format: cell-based, human; conditions: over the range of N/P ratios, 24 hours
Procedure: In order to evaluate the toxicity of compound 11 of example 1 on HEK293 cells, the kit CellTiter Glo 2.0 (Promega) has been used.
One day before the transfection, the cells HEK293 are deposited in a 96-wells plaque: 1·10^3 cell/wells and then treated with 200 μL of DMEM, SVF 10%, without antibiotics, in order that the cells reach a 30-50% of confluence the day after.
The day of the transfection, the cells are incubated with the complex siRNA-cyclodextrin conjugate obtained in example 1 and Lipofectamine 2000.siRNA at 37° C. during 24 hours until analysis of the cells viability (ATP activity) using a kit CellTiter Glo 2.0.
For this aim 100 μL/wells of CellTiter Glo 2.0. reactant are added to the cells before the plaque be analyzed by luminescence.

binding (complexation) of siRNA, no migration of siRNA in gel [1]: complete binding of siRNA
Structure (SMILES): OCC1O[C@@H]2O[C@@H]3C(CO)O[C@H](O[C@@H]4C5CN(CCC67CC8CC(CC(C8)C6)C7)CCCCNCC6O[C@H](O[C@@H]7C(CO)O[C@H](O[C@H]1C(O)C2O)C(O)C7O)C(O)C(O)[C@@H]6O[C@H]1OC(CO)[C@@H](O[C@H]2OC(CO)[C@@H](O[C@@H](O5)C(O)C4O)C(O)C2O)C(O)C1O)C(O)C3O (stereo partly drawn) [compose 11]
knockdown of GL3 luciferase expression [2]: ≤ 50%
cytotoxicity of transfection with siRNA complexes [3]: no cytotoxicity
